Source: article PMC12332157, “A preclinical study on the influence of linkers in [^68Ga]Ga-NOTA-X-RM26 radiotracers for PET imaging of GRPR expression” (EJNMMI Research, 2025)
Starred links: 1 amine or outer side, 2 acyl side, 3 side chain; linkers in the order of their positions; H or OH if unused. Non-standard residues stand in square brackets, D forms with d. Residues, ends and D or L forms follow the SMILES beside them. *: point of attachment. NOTA = O=C(O)CN1CCN(CC(=O)O)CCN(CC(=O)*)CC1; Sta = CC(C)C[C@H](N)[C@@H](O)CC(=O)O; X2 = O=C(COc1cccc(CN[*:1])c1)[*:2]

Test system: PC-3 xenografts
Assay: PET/CT imaging of mice bearing PC-3 xenografts
Assay type: in vivo
Conditions: 2 h post injection, 100 pmol i.v.
Experimental: For PET/CT imaging, animals bearing PC-3 xenografts were used. The animals received a single intravenous injection of the corresponding ^68Ga-radiolabeled peptide (100 pmol, 1.2 MBq) and 2 h post injection they were euthanized using CO2. For image acquisition, Nano PET 3T (PET/MRI) and nanoScan (SPECT/CT) (Mediso Medical Imaging Systems, Budapest, Hungary) tomographs were used. Reconstruction of the PET scans was conducted using Nucline nanoScan 3.04.014.0000 software. CT data were reconstructed using Filter Back Projection in Nucline 2.03 Software (Mediso Medical Imaging Systems Ltd., Budapest, Hungary). For their fusion, Nucline 2.03 Software was used, and PET images are presented as maximum intensity projections (MIP) with an equivalent color scale.

Question: With `CC(=O)N[C@@H](CCCCNC(=O)CN1CCN(CC(=O)O)CCN(CC(=O)O)CC1)C(=O)NCc1cccc(OCC(=O)N[C@H](Cc2ccccc2)C(=O)N[C@@H](CCC(N)=O)C(=O)N[C@@H](Cc2c[nH]c3ccccc23)C(=O)N[C@@H](C)C(=O)N[C@H](C(=O)NCC(=O)N[C@@H](Cc2c[nH]cn2)C(=O)N[C@@H](CC(C)C)[C@@H](O)CC(=O)N[C@@H](CC(C)C)C(N)=O)C(C)C)c1` [NOTA-mMA-RM26] (Ac-K(NOTA)[X2][dF]QWAVGH[Sta]L-NH2) as the molecule, how does the “uptake in PC-3 tumors on PET images” value read?
Answer: lower uptake
